Values of other authors, collected in patent US20190083388A1, “SYNTHENTIC TRANSDERMAL CANNABIDIOL FOR THE TREATMENT OF FOCAL EPILEPSY IN ADULTS” (ZYNERBA PHARMACEUTICALS, INC., priority 2017, published 2019).
Where two headings read alike, the source gives them in different places.

How the values were obtained:
CB2 receptors = CB2 receptors (Homo sapiens, UniProt P34972)
[1] = not given; remark: listed apart in the source

CB2 receptors, sequence (P34972 whole entry): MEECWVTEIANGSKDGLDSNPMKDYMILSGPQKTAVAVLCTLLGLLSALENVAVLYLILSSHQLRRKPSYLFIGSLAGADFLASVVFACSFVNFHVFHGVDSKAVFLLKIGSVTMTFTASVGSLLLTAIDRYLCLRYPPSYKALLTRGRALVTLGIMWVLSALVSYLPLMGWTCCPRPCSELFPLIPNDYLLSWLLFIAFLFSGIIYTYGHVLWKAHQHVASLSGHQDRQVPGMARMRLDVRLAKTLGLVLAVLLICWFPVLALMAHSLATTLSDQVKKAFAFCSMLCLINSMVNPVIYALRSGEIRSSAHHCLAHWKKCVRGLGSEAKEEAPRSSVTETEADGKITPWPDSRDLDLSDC

SMILES: C=C(C)C1CCC(C)=CC1c1c(O)cc(CCCCC)cc1O (stereo not shown) [CBD, 2-[3-methyl-6-(1-methylethenyl)-2-cyclohexen-1-yl]-5-pentyl-1,3-benzenediol]
- bioavailability (oral): ≈ 6%
- bioavailability (transdermal delivery): about 25%
- affinity for CB2 receptors (CB2 receptors): low affinity
- solubility in water [1]: virtually insoluble
